Measurements from US8580321B2, “Method for reducing the effects of chemotherapy using flagellin related polypeptides” (priority 2003, dated 2013).

Legend:
[1] = tested on: mice treated with total body gamma radiation; experiment: Mouse survival after total body gamma irradiation (radioprotection); format: in vivo; conditions: for 30-day survival, 11 Gy / 30-day survival, 14 Gy: s.c. 5.0 μg/mouse (0.2 mg/kg); for 30-day survival, 11 Gy: 1 hour before 11 Gy; for 30-day survival, 14 Gy: 1 hour before 14 Gy
Method: Whole body irradiation of mice with 15 Gy gamma radiation caused death within 8 days from GI syndrome providing a conventional model of radiation induced damage of GI tract. To test whether flagellin was capable of protecting GI epithelium from IR, we tested the effect of i.v.-injected flagellin on the dynamics of mouse lethality after 15 Gy of radiation. […] Irradiation was done 4 hours post treatment. As expected, control irradiated mice (that received PBS i.v.) died between 5 and 8 days post-treatment. […] Intravenous, intraperitoneal and subcutaneous delivery of 0.2 mg/kg of flagellin followed by 13 Gy irradiation afforded similar degree of protection, leading to 85-90% 30-day survival of mice (data not shown). While not being bound by theory, flagellin may be a radioprotectant due to its activation of NF-κB, which presumably acts as an inhibitor of apoptotic death.
The experiments were done similarly to the above-described ones (FIGS. 14 and 15), however, instead of 15Gy, mice received 10Gy, the dose that caused 100% killing in control group by day 13 (FIG. 6).
In order to further estimate the dependence of radioprotective activity of flagellin on the time of treatment, mice were injected at several time points relative to the moment of gamma-irradiation. Experiments were performed essentially as explained above, using intraperitoneal injection of 5 μg/mouse (0.2 mg/kg) of full-length flagellin or, for control mice, 5 μg/mouse (0.2 mg/kg) of bacterial RNA polymerase. The experiments were performed using the NIH-Swiss mouse strain. […] Only −1 h graph is shown for clarity, however, both timepoints (−1 and −2 h) provide similar degree and dynamics of survival.
We next obtained an estimate of radiation dose-dependent protection for flagellin. As shown above (FIG. 7), treatment with flagellin was sufficient for 100% protection against 10 Gy gamma-irradiation (this dose causes death from hematopoietic syndrome) and 90% 30-day survival at 13 Gy (both hematopoietic and GI syndromes). Experiments were performed as described above, using flagellin 5 μg/mouse (0.2 mg/kg), intraperitoneally injected 1 h before irradiation.
As shown above, full-length flagellin provides protection from both hematopoietic and gastrointestinal syndromes. The radioprotective potential of flagellin fragments was similarly tested after gamma-irradiation with 11 Gy (dose that induces hematopoietic syndrome-associated mortality in mice) or 14 Gy (dose that causes death from GI syndrome). Mice (10 animals per group) were injected subcutaneously with 5.0 μg/mouse (0.2 mg/kg) of flagellin or its fragments, AA′ or BB′, and gamma-irradiated 1 hour later.
In order to explore the limits of radioprotection provided by the AA′ fragment, we irradiated mice with 17 Gy and 20 Gy single doses of total body gamma-radiation.
(§1) We tested the ability of AA′ to protect mice that were exposed to it. A group of 20 NIH-Swiss mice were subcutaneously injected with 5 μg/mouse (0.2 mg/kg) of AA′. A second injection of a equal dose of AA′ was administered after 21 (10 mice) and 28 days (another 10 mice), with the time elapsed being sufficient for formation of antibodies. The second injection of AA′ was followed by 13 Gy of whole-body gamma irradiation (1 h post-injection).
Repetitive irradiation within a short period of time may be common, for example, in space radiation events and in clinical radiotherapy regimens. We tested the ability of the AA′ flagellin fragment to protect mice from sub-lethal (4 treatments of 3 Gy) and 100% lethal (4 treatments of 4 Gy) regimens of fractionated gamma-irradiation. Fragment AA′ or saline buffer was given to NIH-Swiss female mice before every irradiation (once a day for 4 days). AA′ was administered as described above for single-dose irradiation (5 μg/mouse, given subcutaneously 1 h before irradiation). […]
We have extensively confirmed that AA′ protects NIH-Swiss and ICR mice from radiation. […]

NIH-Swiss mice = format: in vivo, mouse; conditions: repeated administration
Description: Overall immunogenicity of a protein may determines its suitability for repeated use. Antibodies generated by immune system are capable of reducing the therapeutic activity of the protein and also may induce anaphylactic reaction upon second exposure if IgE antibodies are produced against the protein. Thus, any reduction in the amount and variety of antibodies compared to full-length flagellin is an improvement. Accordingly, after repeated introduction of flagellin or its fragments we monitored; a) efficiency of radioprotection afforded at second exposure; b) local and general allergic reactions; and c) antibody titer.
as §1

A549 cells = experiment: Cell growth inhibition assay (methylene blue) after gamma-irradiation, A549; format: cell-based, human; conditions: 2 μg/ml, with or without 7 or 10 Gy, 72 hours
Method: Tumor cells were seeded in wells of three 96-well plates in 3 different densities (0.5×10^4, 1×10^4 and 2×10^4 cells/well, producing single-cell, spare or semi-contact layer). After cells had attached to plastic, CBLB502 (2 μg/ml) was added to the wells of non-irradiated cells, or 15 min prior to 7 Gy or 10 Gy of gamma-irradiation. Control wells received equal volume of vehicle (PBS). All points were done in quadruplicate. 72 hours after irradiation, medium was replaced with methylene blue in 50%-methanol and the relative numbers of viable cells in wells were measured using spectrophotometer at 650 nm. This experiment was also repeated with fixed dose of 1×10^4 A549 cells/well, CBLB502 was added 1 hour before 5, 10 or 15 Gy of gamma-irradiation (data not shown). We observed a similar effect of flagellin in all tested experiment conditions.

small intestinal crypts = experiment: BrdU incorporation in small intestinal crypts; format: in vivo, mouse
Description: Besides a direct inhibition of apoptosis, temporary halt of proliferation followed by repair may be an alternative mechanism of radioprotection, and has been described for other radioprotectors such as TGF-β3 (Booth D., et. al., Int J Cancer. 2000 Apr. 1; 86(1):53-9). Accordingly, we decided to examine the possible influence of CBLB502 (AA′) on the proliferative activity of the cells in small intestine (with and without irradiation) during the first hours after its administration (FIG. 32). CBLB502 or PBS was injected i.p. in mice, followed after 30 min by 15 Gy irradiation (if used). 2 hr after injection (1.5 hr after irradiation if it was applied), BrdU was injected intraperitoneally. Samples of small intestine were obtained after additional 1.5 hours.
We next determined the duration of the CBLB502-induced growth arrest in small intestine. CBLB502 or PBS was injected i.p. in mice, BrdU was injected 1 or 4 hours later and samples of small intestine were obtained after additional 1.5 hours from several mice (samples from three mice are shown) (FIG. 33).

[2] = 5 μg/mouse (0.2 mg/kg) i.p. 1 h before 15 Gy
[3] = 5 μg/mouse i.p. 1 h before irradiation, estimate

AA′: flagellin fragment (1-177)-Linker-(402-505), SEQ ID NO: 8
protection against fractionated gamma-irradiation ([1]; 5 μg/mouse s.c. 1 h before every irradiation, 4 treatments of 3 Gy or 4 Gy, NIH-Swiss female mice): significant protection
survival at day 10, Balb/c mice ([1]; 0.2 mg/kg 30 minutes before 10 Gy, vehicle 0%): 100%
time of mortality at 17 Gy ([1]; 17 Gy, control mice 6-7 day mortality): 10 to 15 days
delay of death after supralethal irradiation ([1]; 17 and 20 Gy, versus inactive fragment control): significantly delayed
survival at day 30, all tested strains ([1]; 129/Sv, DBA/2, Balb/c, CD2F1, 0.2 mg/kg 30 minutes before 10 Gy, vehicle 0-25%): 50-100%
effect of NS398 on radioprotection ([1]; LPS 2 mg/kg or AA′ 0.2 mg/kg s.c. 1 hr before 13 Gy, with NS398 1 mg/kg i.p., NIH-Swiss): not
30-day survival, 11 Gy [1]: 100%
30-day survival, 14 Gy [1]: 100%
30-day survival after second exposure to AA′ ([1]; second s.c. injection 0.2 mg/kg after 21 or 28 days, 13 Gy 1 h post-injection, NIH-Swiss): 100%
mortality at 17 Gy ([1]; single dose 17 Gy total body): 100%
mortality at 20 Gy ([1]; single dose 20 Gy total body): 100%
local allergic reaction or anaphylaxis (NIH-Swiss mice): no local allergic reaction or anaphylaxis
effect on cell numbers (A549 cells): no or slight effect
incorporation of BrdU in intestine, BrdU after 1 hour (small intestinal crypts; BrdU injected 1 hour after CBLB502): reduced as compared to control
incorporation/DNA synthesis, BrdU after 4 hr (small intestinal crypts; BrdU injected 4 hr after CBLB502): even higher than in control
level of BrdU incorporation, irradiated mice (small intestinal crypts; i.p. 30 min before 15 Gy, NIH-Swiss mice): strongly reduced
DNA synthesis (BrdU incorporation) in crypts, no irradiation (small intestinal crypts; i.p., BrdU 2 hr after injection, NIH-Swiss mice): nearly undetectable

flagellin: Salmonella dublin FliC flagellin, 505 amino acids, SEQ ID NO: 1; recombinant full-length protein
7-day survival at 15 Gy [1, 2]: 100%
30-day survival at 15 Gy [1, 2]: 0%
DMF30 [1, 3]: 1.75-1.8
LD50/30 (radiation dose, flagellin-treated mice) [1, 3]: 13.5-14 Gy
protection from 10Gy (HP syndrome) ([1]; 5 μg/mouse, 10Gy): complete protection
protection against radiation by gavage delivery ([1]; 50 μg by gavage 1 h before 13 Gy): No protection
30-day survival, parenteral routes ([1]; 0.2 mg/kg i.v., i.p., i.m. or s.c., 1 hr before 13 Gy, NIH-Swiss): 85-90%
30-day survival of mice ([1]; 0.2 mg/kg intravenous, intraperitoneal or subcutaneous, followed by 13 Gy): 85-90%
protection against 10 Gy gamma-irradiation ([1]; 10 Gy (hematopoietic syndrome)): 100%
30-day survival at 13 Gy ([1]; 13 Gy): 90%
protection from 10 Gy ([1]; administered 24 hours before 10 Gy): 100%
survival after 13 Gy irradiation ([1]; i.p. 5 μg/mouse (0.2 mg/kg), injected 1 or 2 hours before, NIH-Swiss mice): ~90%
protection, 4 h timepoint ([1]; i.p. 5 μg/mouse, injected 4 h before 13 Gy, NIH-Swiss): somewhat lower protection
protective effect against 13 Gy induced death ([1]; i.p. 5 μg/mouse, injected 24 hours before 13 Gy): no protective effect
survival after 15 Gy ([1]; i.v., irradiation 4 hours post treatment, 15 Gy, PBS controls died between 5 and 8 days): lived significantly longer
radioprotectant effect from 13Gy ([1]; injected 1-4 h before 13Gy): effective as a radioprotectant
approximate DMF (30-day survival) ([1]; mouse, in vivo): greater than 1.5
30-day survival, 11 Gy [1]: 100%
30-day survival, 14 Gy [1]: 100%
local allergic reaction or anaphylaxis (NIH-Swiss mice): no local allergic reaction or anaphylaxis
